Target: T1, LTA4H (Homo sapiens, UniProt P09960)
T1 sequence (P09960 2-611): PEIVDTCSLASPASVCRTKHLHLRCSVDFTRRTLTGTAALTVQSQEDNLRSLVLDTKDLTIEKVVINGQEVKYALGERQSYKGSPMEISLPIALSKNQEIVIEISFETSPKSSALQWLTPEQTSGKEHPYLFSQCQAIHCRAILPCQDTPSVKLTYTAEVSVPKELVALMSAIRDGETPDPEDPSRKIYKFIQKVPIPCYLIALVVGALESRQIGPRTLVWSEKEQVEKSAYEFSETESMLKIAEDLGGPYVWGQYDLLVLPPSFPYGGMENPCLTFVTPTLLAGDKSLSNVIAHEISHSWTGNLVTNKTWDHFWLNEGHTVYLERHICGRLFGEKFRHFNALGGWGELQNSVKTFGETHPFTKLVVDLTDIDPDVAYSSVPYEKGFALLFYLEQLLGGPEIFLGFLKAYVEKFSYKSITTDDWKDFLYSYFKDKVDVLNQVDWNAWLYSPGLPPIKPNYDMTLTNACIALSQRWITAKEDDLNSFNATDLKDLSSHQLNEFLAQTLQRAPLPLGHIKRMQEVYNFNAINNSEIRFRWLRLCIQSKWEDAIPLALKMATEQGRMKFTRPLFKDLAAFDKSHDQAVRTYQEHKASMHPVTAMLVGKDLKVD
Test: colorimetric peptidase assay, 4-nitroaniline absorption at […] nm
Type: biochemical
Details: 50 mM HEPES pH 7.5, 100 mM KCl

Row | SMILES | colorimetric peptidase assay, 4-nitroaniline absorption at 410 nm (1 mM substrate) | colorimetric peptidase assay, 4-nitroaniline absorption at 410 nm (inhibitor, L-alanine 4-nitroanilide 1 mM, 460 nm light)
1 | C[C@H](N)C(=O)Nc1ccc([N+](=O)[O-])cc1 [L-alanine 4-nitroanilide] | L-alanine 4-nitroanilide which is converted to the strongly absorbing 4-nitroaniline | –
2 | c1ccc(/N=N/c2ccc(OCCN3CCCC3)cc2)cc1 [trans-LTA4H-Photoswitch] | – | trans-LTA4H-Photoswitch was a more potent inhibitor of LTA4H peptidase than the cis-isomer

Source: article PMC6487453 (ACS Central Science, 2019)
